The values that follow come from patent publication US20150044201A1, “CYCLON EXPRESSION FOR THE IDENTIFICATION AND CONTROL OF CANCER CELLS” (UNIVERSITE JOSEPH FOURIER - GRENOBLE, priority 2012, published 2015).

“Also recorded” adds a separate entry of the source.

One series concerns Cyclon. Conditions: K562 leukemic cells treated with Imatinib, public data GDS3043; cited from earlier work.
Series [1] has as its system Raji cells. The series is described as follows: Evaluation of Rituximab sensitivity, complement dependent cytotoxicity (CDC) assay. Conditions: sh Cyclon vs sh Ctrl cell lines (Raji, B593, SUDHL4); 1 h, 1 μg/ml Rituximab, 20% human serum. Format: cell-based. Here is the method: (§1) Non-targeting or CYCLON targeting short hairpin (sh) RNA sequences were designed using the DSIR algorithm (http://biodev.cea.fr/DSIR/DSIR.html). Sequences, provided in Table 1, were cloned into the pLKO-1 lentiviral vector (Addgene) and packaged as described (Levy et al., 2010) or purchased from Santa Cruz. Cells were transduced with lentiviral particles at a MOI of 10. Stable cell lines were established under puromycin selection (1 μg/ml).
(§2) Cells were treated with 1 to 10 μg/ml Rituximab (Roche) or isotype control (Herceptin, Roche) for 24 h for direct apoptosis assays and for 1 h in presence of 20% human serum as a source of complement for CDC assays. Cell viability was evaluated by AnnexinV/IP (Beckman Coulter) or IP staining and flow cytometry analysis (LSIIR, BD). Specific cell death was calculated as (% of cell death with Rituximab−% cell death with Herceptin)/(1−% cell death with Herceptin), n=8 for each cell line.

In series [2] the test system is Raji cells. Kind of series: Xenotransplantation assay, Raji shCtrl / shCyclon tumours treated with Rituximab. Conditions: subcutaneous, daily intraperitoneal 200 μg Rituximab. Format: in vivo, nude mice. Here is the method: 3·10^6 Raji cells were injected subcutaneously into the flank of 6 to 8 week-old nude mice as described. Four mice were injected, each of them with shCtrl and shCyclon Raji cells into the right and left flanks respectively. When tumours were palpable (˜[…]), mice were given daily intraperitoneal injections of 200 μg Rituximab. Tumour volume was measured every 2 days using the formula I^2×L×0.52 (n=4 for each group).

For series [3], the system named is Raji cells. The series is described as follows: Evaluation of Rituximab sensitivity, direct apoptosis assay. Format: cell-based. Conditions: sh Cyclon vs sh Ctrl cell lines (Raji, B593, SUDHL4); 24 h, 10 μg/ml Rituximab. Here is the method:
as §1, §2

With `Cc1ccc(NC(=O)c2ccc(CN3CCN(C)CC3)cc2)cc1Nc1nccc(-c2cccnc2)n1` [Imatinib], in the series on Cyclon, the Cyclon expression level result is on record as “down-regulation of Cyclon; also recorded: reduce Cyclon expression levels”.
Turning to Rituximab, the “sensitivity of cancer cells through complement dependent cytotoxicity (CDC specific cell death)” value in the series with Raji cells [1] is listed as “increased sensitivity”. Besides, the “tumour regression, day of treatment” value with Raji cells [2] (Cyclon-depleted tumours (Raji shCyclon)) was at most 4 days; with Raji cells [2] (control tumours (Raji shCtrl)) it was 14 days. For the same compound, the “sensitivity of cancer cells through direct apoptosis (specific cell death)” value in the series on Raji cells [3] is recorded as “increased sensitivity”.
